These results are taken from US8822449B2, “Substituted aminoindanes and analogs thereof, and the pharmaceutical use thereof” (Sanofi, priority 2008, dated 2014).

This test addresses T1, sodium-proton exchanger of subtype 3 (NHE3) (Homo sapiens, UniProt P48764).
T1 construct: expressed in transfected cells
T1 sequence (P48764 26-834): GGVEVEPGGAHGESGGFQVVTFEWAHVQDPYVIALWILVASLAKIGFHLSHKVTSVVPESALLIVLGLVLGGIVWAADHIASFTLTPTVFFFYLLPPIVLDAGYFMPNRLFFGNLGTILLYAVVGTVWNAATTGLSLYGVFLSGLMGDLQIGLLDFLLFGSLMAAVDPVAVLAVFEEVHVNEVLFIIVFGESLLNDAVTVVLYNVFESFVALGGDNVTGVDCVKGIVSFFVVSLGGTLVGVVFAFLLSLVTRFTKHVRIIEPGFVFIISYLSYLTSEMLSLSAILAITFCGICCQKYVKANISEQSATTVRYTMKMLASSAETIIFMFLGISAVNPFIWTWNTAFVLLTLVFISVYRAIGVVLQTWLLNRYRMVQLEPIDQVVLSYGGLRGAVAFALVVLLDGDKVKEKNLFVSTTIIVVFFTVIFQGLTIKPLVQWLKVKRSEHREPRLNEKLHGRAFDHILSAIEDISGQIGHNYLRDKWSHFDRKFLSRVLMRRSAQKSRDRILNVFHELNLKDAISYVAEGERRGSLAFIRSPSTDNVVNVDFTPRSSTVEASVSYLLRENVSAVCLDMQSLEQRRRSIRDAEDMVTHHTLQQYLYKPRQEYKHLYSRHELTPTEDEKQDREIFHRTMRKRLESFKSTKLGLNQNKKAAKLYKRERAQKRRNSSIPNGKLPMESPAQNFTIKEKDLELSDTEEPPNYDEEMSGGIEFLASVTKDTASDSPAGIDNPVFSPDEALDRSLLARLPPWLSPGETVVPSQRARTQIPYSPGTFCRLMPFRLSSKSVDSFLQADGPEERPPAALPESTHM
As to the kind of experiment: Recovery of intracellular pH (pHi) after acidification in LAP1 cells stably expressing NHE3 (BCECF fluorescence, FLIPR). Type of test: cell-based. The following applies: LAP1 cells stably expressing NHE3; pH recovery after acidification; range 1 is % inhibition at 10 μM; read-out: Activity range (inhibitory effect on NHE3).
Regarding `CCOc1cccc(O[C@@H]2c3ccccc3C[C@H]2N2CCC(CN)C2)c1` (mixture of isomers) [Example 615, C-{1-[rac-trans-(1,2)-1-(3-ethoxyphenoxy)indan-2-yl]pyrrolidin-3-yl}methylamine], the IC50 was 1 to 10 µM. For the compound `CS(=O)(=O)c1ccc(O[C@H]2c3cc(Cl)cc(Cl)c3C[C@@H]2N2CC[C@@H](CO)C2)cc1` [Example 227, {(R)-1-[trans-(1S,2S)-4,6-dichloro-1-(4-methanesulfonylphenoxy)indan-2-yl]pyrrolidin-3-yl}methanol], the IC50 lay in the range of 1 to 10 µM. `NS(=O)(=O)c1ccc(O[C@H]2c3cc(Cl)cc(Cl)c3C[C@@H]2N2CCC(F)(F)CC2)cc1` [Example 484, 4-[(1S,2S)-4,6-dichloro-2-(4,4-difluoropiperidin-1-yl)indan-1-yloxy]benzenesulfonamide]: the inhibition at 10 µM was in the range of 20 to 50%. As for `CN1CCN(C(=O)c2ccc(O[C@H]3c4ccccc4C[C@@H]3N3CCCC3)cc2)CC1` (racemic) [Example 22, (4-methylpiperazin-1-yl)-[4-(rac-trans-(1,2)-2-pyrrolidin-1-ylindan-1-yloxy)phenyl]methanone], the IC50 fell in the range of 1 to 10 µM. Turning to `CCc1nnc(C(C)C)n1-c1ccc(O[C@H]2c3cc(Cl)cc(F)c3C[C@@H]2N2CC[C@@H](O)C2)cc1` [Example 722, (R)-1-{trans-(1S,2S)-6-Chloro-1-[4-(3-ethyl-5-isopropyl-[1,2,4]triazol-4-yl)-phenoxy]-4-fluoro-indan-2-yl}-pyrrolidin-3-ol], the IC50 is 1 to 10 µM. On the same count and under the same terms, then `CS(=O)(=O)c1ccc(O[C@H]2c3cc(Cl)cc(F)c3C[C@@H]2N2CC[C@@H](O)C2)c(Cl)c1` [Example 106, (R)-1-[trans-(1S,2S)-6-chloro-1-(2-chloro-4-methanesulfonylphenoxy)-4-fluoroindan-2-yl]pyrrolidin-3-ol], with under 1 µM. Consider `Cc1nnc(C)n1-c1ccc(O[C@H]2c3cc(Cl)cc(Cl)c3C[C@@H]2N(C)CCO)c(F)c1` [Example 704, 2-({trans-(1S,2S)-4,6-Dichloro-1-[4-(3,5-dimethyl-[1,2,4]triazol-4-yl)-2-fluoro-phenoxy]-indan-2-yl}-methyl-amino)-ethanol], for which the IC50 is under 1 µM. Still for that read-out and setting: then `Cc1cc(O[C@H]2c3ccccc3C[C@@H]2N2CCCC2)ccc1S(C)(=O)=O` (racemic) [Example 271, 1-[rac-trans-(1,2)-1-(4-methanesulfonyl-3-methylphenoxy)indan-2-yl]pyrrolidine], with 1 to 10 µM.

Regarding `CC(=O)Nc1cccc(O[C@H]2c3ccccc3C[C@@H]2N2CCSCC2)c1` (racemic) [Example 643, N-[3-(rac-trans-(1,2)-2-thiomorpholin-4-ylindan-1-yloxy)phenyl]acetamide], the inhibition at 10 µM was in the range of 20 to 50%. On the same count and under the same terms, then `NC(=O)c1cccc(O[C@H]2c3ccccc3CC[C@@H]2N2CCC[C@H](N)C2)c1` (racemic) [Example 412, 3-[rac-trans-(1,2)-2-((S)-3-aminopiperidin-1-yl)-1,2,3,4-tetrahydronaphthalen-1-yloxy]benzamide], with 20 to 50%. With `NCC1CCN([C@@H]2Cc3ccccc3[C@H]2Oc2ccc(S(N)(=O)=O)c(Cl)c2Cl)CC1` (racemic) [Example 545, 4-[rac-trans-(1,2)-2-(4-aminomethylpiperidin-1-yl)indan-1-yloxy]-2,3-dichlorobenzenesulfonamide], the IC50 was in the range of 1 to 10 µM. Turning to `Cc1noc(C)c1-c1cc(F)ccc1O[C@H]1c2ccccc2C[C@@H]1N1CCCC1` [Example 503, 4-[5-fluoro-2-(trans-(1S,2S)-2-pyrrolidin-1-ylindan-1-yloxy)phenyl]-3,5-dimethylisoxazole], the inhibition at 10 µM is 20 to 50%. On the same count and under the same terms, the value for `CN(C)C[C@H]1Cc2c(Cl)cc(Cl)cc2[C@@H]1Oc1ccc(S(C)(=O)=O)cc1` (racemic) [Example 217, [rac-trans-(1,2)-4,6-dichloro-1-(4-methanesulfonylphenoxy)indan-2-ylmethyl]dimethylamine] was 20 to 50%.
